Experiments:
[1] = test system: embryonic stem cells; test: Effect of lithium chloride on embryonic stem cells; type: cell-based
Source text: Thus, in some specific embodiments, the serum replacement is devoid lithium chloride.

[2] = test system: embryonic stem cell colonies; test: Effect of fetuin and α-fetoprotein on growth rate and size of embryonic stem cell colonies; type: cell-based; details: human serum albumin 10 mg/ml
Protocol: All formulations shown contained human serum albumin at a concentration of 10 mg/ml.
The composition of the formulation according to this embodiment of the present invention was further optimized as described above in Table 2.

[Cl-].[Li+] [lithium chloride]
effect on embryonic stem cells [1]: may be harmful for embryonic stem cells resulting in differentiation

B1: A: α-fetoprotein, commercially available fetal carrier protein (protein, UniProt P02771 19-609, looked up)
Alpha-fetoprotein: RTLHRNEYGIASILDSYQCTAEISLADLATIFFAQFVQEATYKEVSKMVKDALTAIEKPTGDEQSSGCLENQLPAFLEELCHEKEILEKYGHSDCCSQSEEGRHNCFLAHKKPTPASIPLFQVPEPVTSCEAYEEDRETFMNKFIYEIARRHPFLYAPTILLWAARYDKIIPSCCKAENAVECFQTKAATVTKELRESSLLNQHACAVMKNFGTRTFQAITVTKLSQKFTKVNFTEIQKLVLDVAHVHEHCCRGDVLDCLQDGEKIMSYICSQQDTLSNKITECCKLTTLERGQCIIHAENDEKPEGLSPNLNRFLGDRDFNQFSSGEKNIFLASFVHEYSRRHPQLAVSVILRVAKGYQELLEKCFQTENPLECQDKGEEELQKYIQESQALAKRSCGLFQKLGEYYLQNAFLVAYTKKAPQLTSSELMAITRKMAATAATCCQLSEDKLLACGEGAADIIIGHLCIRHEMTPVNPGVGQCCTSSYANRRPCFSSLVVDETYVPPAFSDDKFIFHKDLCQAQGVALQTMKQEFLINLVKQKPQITEEQLEAVIADFSGLLEKCCQGQEQEVCFAEEGQKLISKTRAALGV
concentration that increased colony size and growth rate the most [2]: 0.05 mg/mL

From US20100081200A1, “FORMULATIONS AND METHODS FOR CULTURING STEM CELLS” (priority 2007, published 2010)
